# Test results reported in patent US20190169140A1, “IDO1 INHIBITOR AND PREPARATION METHOD AND APPLICATION THEREOF” (SHANDONG LUYE PHARMACEUTICAL CO., LTD., priority 2016, published 2019).
# Read-outs that look alike come from different tables or passages of the source. Marks after values point to notes of the source that are not given here.
# What was measured:
# [1] = Measurement of thermodynamic solubility; type: physicochemical; details: aqueous buffer, thermodynamic from solid, room temperature
# Description: II. Measurement of Thermodynamic Solubility
# 1. Solutions for Thermodynamic Solubility
# Buffer A (pH 2.0): 50 mM phosphate buffer, with a pH value of 2.0.
# Buffer B (pH 7.4): 50 mM phosphate buffer, with a pH value of 7.4.
# 50% acetonitrile solution and 50% buffer (A, B) were mixed together to obtain a diluent. 10 mM (20 μL/compound) stock solution was added to acetonitrile (480 μL/compound), and mixed with the buffer (A, B) (500 μL/compound) to obtain 200 μM UV detection standard solution. The 200 μM UV detection standard solution was diluted with the diluent 10 times or 200 times the amount of the standard solution, so as to acquire 20 μM or 1 μM UV standard solution. 1, 20, and 200 μM UV standard solutions were taken as standard samples for thermodynamic solubility test.
# No less than 2 mg of a sample powder was weighed and placed in a Whatman miniuniprep vial. If it was required to test the thermodynamic solubility of the sample in multiple buffers (A, B), an independent vial was demanded for each test. 450 μL of the buffer (A, B) was respectively added to each Whatman miniuniprep vial. After the buffer was added, a piston cover of the Whatman miniuniprep functioning to filter was put on and pressed above a liquid surface, such that a filter screen was in contact with the buffer (A, B) during the shaking. The solubility sample was shaken in a vortex manner for 1 minute, and phenomenon of the solution was recorded. The sample was shaken at 600 rpm at a room temperature (approximately 22˜25° C.) for 24 hours. The filtering cover of Whatman Miniunipreps was pressed to a bottom, to obtain a filtrate of the sample solubility solution. All sample vials should be recorded for insoluble substances before and after the filtration and leakage phenomenon thereof. The buffer (A, B) was 50-fold diluted to obtain a sample diluent.
# 3 UV standard solutions, from low concentration to high concentration, were injected into HPLC, and then the diluent and the supernatant of the compound to be tested were injected. The sample to be tested was in duplicate. Integration was carried out for UV chromatographic peaks. A standard curve was established by simulation and the thermodynamic solubility of the sample was calculated. HPLC conditions were as follows.
# mice colon cancer CT26 = test: Efficacy against mice colon cancer CT26 transplanted tumor; type: in vivo, BALB/c mice; details: for Inhibitory Rate for Tumor Weight / Tumor Weight / mean tumor weight compared with the control group: end of experiment; for tumor inhibitory effect compared at the same dose: same dose of 100 mg/kg
# Description: Research on Efficacy of Anti-Mice Colon Cancer Ct26
# In the present research, colon cancer CT26 models were employed to compare differences between compound 231 and compounds 360 and 117 in antitumor effects.
# Therefore, the dose of the two compounds, compound 360 and compound 117, in the present experiment was set as 100 mg/kg. In order to observe dose-efficacy relevance of 231, a dose of the compound 231 was set as 25, 50, 100, 200 mg/kg in the present experiment. All drugs were administered by gavage, twice a day.
# According to document reports, mice colon cancer CT26 is a commonly used tumor model for evaluating immunological drugs. […] Therefore, CT26-bearng BALB/c models were chosen in the present experiment for research on efficacy and tissue distribution.
# In a super-clean bench, each mouse was subcutaneously inoculated with 0.2 mL of the tumor cell suspension at shoulder, with an inoculation amount of 1×10^5 per mouse. When a tumor block grew to be 500-1000 mm^3, the tumor block was taken out, cut into pieces with scissors, and subcutaneously inoculated at shoulder at the mouse's back using a subcutaneous embedding implantation puncture needle (with a diameter of 1.2 mm).
# The day of tumor inoculation was defined as Day 0, and the inoculated animals were grouped randomly on the day of inoculation. One day after the inoculation (Day 1), the administration was started. The experiment had 7 groups in total, with 12 animals in each group. See details in Table 12 for information on animal grouping and administration.
# It was an experimental cycle when the tumor in the control group grew to have a volume of 3000 mm^3. The following indexes were observed during the experiment.
# (1) As for tumor growth curve, when the tumor was measurable, a maximum diameter (a) and a minimum diameter (b) of the tumor were measured once every other day, to calculate the tumor volume (a calculation formula is V=½×a×b^2), and anti-tumor effect of the tested drug was observed dynamically.
# (4) As for tumor inhibitory rate, when the experiment was ended, the mice were killed by cervical dislocation, the tumor blocks were taken out and weighed, to calculate the tumor inhibitory rate, where tumor inhibitory rate=(mean tumor weight of the control group-mean tumor weight of the treatment group)/mean tumor weight of the control group×100%), and the tumor blocks were photographed with a digital camera for recording.
# [2] = 50 mM phosphate buffer pH 2.0, 24 hours, read-out: thermodynamic solubility (pH: 2.0)
# [3] = 50 mM phosphate buffer pH 7.4, 24 hours, read-out: thermodynamic solubility (pH: 7.4)
compound,measurement,setting,value
"NS(=O)(=O)NCCNc1nonc1C(=NO)Nc1ccc(F)c(Br)c1 [Compound 360, INCB024360, reference compound]",solubility thermodynamic at 24 h,[1]; [2],65 µM
same,solubility thermodynamic at 24 h,[1]; [3],160 µM
same,mean tumor volume compared with the control group during the test,mice colon cancer CT26; 100 mg/kg gavage BID,"always less than that of the control group, but without statistical difference"
same,Mean Tumor Volume,"mice colon cancer CT26; 100 mg/kg gavage BID, D12",512.0 ± 240.2 mm^3
same,Mean Tumor Volume,"mice colon cancer CT26; 100 mg/kg gavage BID, D14",949.2 ± 773.3 mm^3
same,Mean Tumor Volume,"mice colon cancer CT26; 100 mg/kg gavage BID, D17",1531.0 ± 606.0 mm^3
same,Mean Tumor Volume,"mice colon cancer CT26; 100 mg/kg gavage BID, Day8",95.2 ± 36.6 mm^3
same,Mean Tumor Volume,"mice colon cancer CT26; 100 mg/kg gavage BID, Day10",303.5 ± 233.3 mm^3
same,Inhibitory Rate for Tumor Weight,mice colon cancer CT26; 100 mg/kg gavage BID,29.5%
same,Tumor Weight,mice colon cancer CT26; 100 mg/kg gavage BID,1.41 ± 0.81 g
same,mean tumor weight compared with the control group,mice colon cancer CT26; 100 mg/kg gavage BID,"less than that of the control group, but without statistical difference"
same,tumor inhibitory rate for CT26,"mice colon cancer CT26; preliminary experimental research, gavage 100 mg/kg bid",30-50%
same,tumor inhibitory effect compared at the same dose,mice colon cancer CT26,equivalent tumor inhibitory effect
NS(=O)(=O)NCCOc1nonc1/C(=N/O)Nc1ccc(F)c(Br)c1 [Compound 0015],solubility thermodynamic at 24 h,[1]; [2],138 µM
same,solubility thermodynamic at 24 h,[1]; [3],298 µM
NS(=O)(=O)NCCSc1nonc1/C(=N/O)Nc1ccc(F)c(Br)c1 [Compound 0117],solubility thermodynamic at 24 h,[1]; [2],2620 µM
same,solubility thermodynamic at 24 h,[1]; [3],2610 µM
same,mean tumor volume compared with the control group during the test,mice colon cancer CT26; 100 mg/kg gavage BID,"always less than that of the control group, but without statistical difference"
same,animals without tumor block when the test was ended,"mice colon cancer CT26; 100 mg/kg gavage BID, 12 animals",one animal on which no tumor block grew
same,Mean Tumor Volume,"mice colon cancer CT26; 100 mg/kg gavage BID, D12",517.3 ± 261.9 mm^3
same,Mean Tumor Volume,"mice colon cancer CT26; 100 mg/kg gavage BID, D14",760.9 ± 335.7 mm^3
same,Mean Tumor Volume,"mice colon cancer CT26; 100 mg/kg gavage BID, D17",1410.5 ± 734.0 mm^3
same,Mean Tumor Volume,"mice colon cancer CT26; 100 mg/kg gavage BID, Day8",130.1 ± 31.1 mm^3
same,Mean Tumor Volume,"mice colon cancer CT26; 100 mg/kg gavage BID, Day10",262.3 ± 131.2 mm^3
same,Inhibitory Rate for Tumor Weight,mice colon cancer CT26; 100 mg/kg gavage BID,14.4%
same,Tumor Weight,mice colon cancer CT26; 100 mg/kg gavage BID,1.71 ± 0.76 g
same,mean tumor weight compared with the control group,mice colon cancer CT26; 100 mg/kg gavage BID,"less than that of the control group, but without statistical difference"
NC(=O)NCCSc1nonc1/C(=N/O)Nc1ccc(F)c(Br)c1 [Compound 0231],solubility thermodynamic at 24 h,[1]; [2],155 µM
same,solubility thermodynamic at 24 h,[1]; [3],125 µM
same,tumor volume compared with the control group,mice colon cancer CT26; 25 mg/kg (low dose) gavage BID,remarkably less than that of the control group at Day 10 and Day 12
same,Mean Tumor Volume,"mice colon cancer CT26; 25 mg/kg gavage BID, D12",411.7 ± 275.4* mm^3
same,Mean Tumor Volume,"mice colon cancer CT26; 25 mg/kg gavage BID, D14",721.9 ± 575.3 mm^3
same,Mean Tumor Volume,"mice colon cancer CT26; 25 mg/kg gavage BID, D17",1471.2 ± 1269.4 mm^3
same,Mean Tumor Volume,"mice colon cancer CT26; 25 mg/kg gavage BID, Day8",69.5 ± 21.9 mm^3
same,Mean Tumor Volume,"mice colon cancer CT26; 25 mg/kg gavage BID, Day10",229.1 ± 76.7* mm^3
same,Inhibitory Rate for Tumor Weight,mice colon cancer CT26; 25 mg/kg gavage BID,25.9%
same,Tumor Weight,mice colon cancer CT26; 25 mg/kg gavage BID,1.49 ± 1.16 g
same,Mean Tumor Volume,"mice colon cancer CT26; 50 mg/kg gavage BID, D12",436.8 ± 204.9* mm^3
same,Mean Tumor Volume,"mice colon cancer CT26; 50 mg/kg gavage BID, D14",661.5 ± 255.6* mm^3
same,Mean Tumor Volume,"mice colon cancer CT26; 50 mg/kg gavage BID, D17",1242.2 ± 500.9* mm^3
same,Mean Tumor Volume,"mice colon cancer CT26; 50 mg/kg gavage BID, Day8",94.5 ± 52.5 mm^3
same,Mean Tumor Volume,"mice colon cancer CT26; 50 mg/kg gavage BID, Day10",234.6 ± 117.6* mm^3
same,Inhibitory Rate for Tumor Weight,mice colon cancer CT26; 50 mg/kg gavage BID,29.2%
same,Tumor Weight,mice colon cancer CT26; 50 mg/kg gavage BID,1.42 ± 0.56 g
same,Mean Tumor Volume,"mice colon cancer CT26; 100 mg/kg gavage BID, D12",372.4 ± 308.9* mm^3
same,Mean Tumor Volume,"mice colon cancer CT26; 100 mg/kg gavage BID, D14",598.6 ± 442.3* mm^3
same,Mean Tumor Volume,"mice colon cancer CT26; 100 mg/kg gavage BID, D17",1195.4 ± 779.8* mm^3
same,Mean Tumor Volume,"mice colon cancer CT26; 100 mg/kg gavage BID, Day8",97.9 ± 86.9 mm^3
same,Mean Tumor Volume,"mice colon cancer CT26; 100 mg/kg gavage BID, Day10",168.2 ± 145.5* mm^3
same,Inhibitory Rate for Tumor Weight,mice colon cancer CT26; 100 mg/kg gavage BID,34.0%
same,Tumor Weight,mice colon cancer CT26; 100 mg/kg gavage BID,1.32 ± 1.09 g
same,Mean Tumor Volume,"mice colon cancer CT26; 200 mg/kg gavage BID, D12",300.4 ± 231.8* mm^3
same,Mean Tumor Volume,"mice colon cancer CT26; 200 mg/kg gavage BID, D14",512.2 ± 351.8* mm^3
same,Mean Tumor Volume,"mice colon cancer CT26; 200 mg/kg gavage BID, D17",909.7 ± 544.6* mm^3
same,Mean Tumor Volume,"mice colon cancer CT26; 200 mg/kg gavage BID, Day8",74.2 ± 32.2 mm^3
same,Mean Tumor Volume,"mice colon cancer CT26; 200 mg/kg gavage BID, Day10",160.5 ± 114.9* mm^3
same,Inhibitory Rate for Tumor Weight,mice colon cancer CT26; 200 mg/kg gavage BID,56.8%
same,Tumor Weight,mice colon cancer CT26; 200 mg/kg gavage BID,0.87 ± 0.74 g
same,mean tumor weight compared with the control group,mice colon cancer CT26; 200 mg/kg gavage BID,remarkably less than that of the control group
same,mean tumor weight compared with the control group,"mice colon cancer CT26; 25, 50, 100 mg/kg gavage BID","less than that of the control group, but without statistical difference"
same,"tumor inhibitory effect, dose dependence","mice colon cancer CT26; 25, 50, 100, 200 mg/kg gavage BID",dose-dependent manner
same,tumor volume compared with the control group,"mice colon cancer CT26; dose equal to or greater than 50 mg/kg, Day 10 to end of test",always remarkably less than that of the control group
same,tumor inhibitory effect compared at the same dose,mice colon cancer CT26,equivalent tumor inhibitory effect
